The source of these data is ChEMBL document CHEMBL1201862, “PubChem BioAssay data set” (2004).

Each structure is given as a SMILES string. Several values for one entry are separate records, joined by “and”; a condition that tells them apart may be missing. Equal values may be shown once.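 Compound exposure: 48 hours, 5 concentrations, 96-well plates. Here, GI50 denotes the concentration required for 50% inhibition of growth.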 Activity calls are given as the source filed them. Rule as the data show it: active = GI50 up to about 1.1 µM and inactive = higher.

Common to all, as to assay: DTP human tumour cell line panel, 48 h
Assay [1] has as its system SNB-19.
Assay [2] relates to SK-OV-3.
The test system of assay [3] is SF-268.
Assay [4] has as its system OVCAR-5.
For assay [5], the system named is MDA-MB-435.
The test system of assay [6] is HOP-62.
Assay [7] deals with Hs-578T.
Assay [8] deals with SNB-75.
For assay [9], the system named is ACHN.
The test system of assay [10] is DU-145.
Assay [11] has as its system SN12C.
The test system of assay [12] is MDA-MB-231.
Assay [13] relates to MCF7.
The subject of assay [14] is UO-31.
Assay [15] relates to A498.
In assay [16] the test system is OVCAR-4.
Assay [17] deals with HCC 2998.
The subject of assay [18] is TK-10.
In assay [19] the test system is SK-MEL-28.
Assay [20] concerns K562.
The subject of assay [21] is NCI-H226.
Assay [22] relates to SK-MEL-2.
The test system of assay [23] is T47D.
The subject of assay [24] is NCI/ADR-RES.
The subject of assay [25] is UACC-257.
Assay [26] concerns 786-0.
In assay [27] the test system is NCI-H460.
For assay [28], the system named is KM12.
Assay [29] has as its system SF-295.
Assay [30] relates to M14.
In assay [31] the test system is HOP-92.
Assay [32] has as its system CCRF-CEM.
For assay [33], the system named is A549.
Assay [34] relates to EKVX.
The test system of assay [35] is OVCAR-8.
Assay [36] deals with RPMI-8226.
Assay [37] relates to HT-29.
Assay [38] has as its system CAKI-1.
Assay [39] concerns COLO 205.
For assay [40], the system named is SR.
For assay [41], the system named is U-251.
Assay [42] deals with IGROV-1.
The test system of assay [43] is MOLT-4.
For assay [44], the system named is HCT-116.
Assay [45] has as its system SK-MEL-5.
The test system of assay [46] is HCT-15.
Assay [47] has as its system HL-60.
The test system of assay [48] is SW-620.
Assay [49] relates to MDA-N.
Assay [50] relates to Malme-3M.

Regarding `COC(=O)C1=COC(C)C2CN3CCc4c([nH]c5ccccc45)C3CC12` (stereo not given), the GI50 was 84.5 µM (inactive) in assay [1]; 58.7 µM (inactive) in assay [2]; 54.1 µM (inactive) in assay [3]; > 100 µM (inactive) in assay [4]; 52.1 µM (inactive) in [5]; > 100 µM (inactive) and 55.1 µM (inactive) in [6]. In [7], the GI50 is 49 µM (inactive) and 26 µM (inactive).

For the compound `C=CCOC(=O)CCCCCCCCCCCCCCCOC(=O)C1=C(CCC[C@@H](C)O[Si](C)(C)C(C)(C)C)N=C(N)N2[C@H](CC3(CC/C=C\[C@H](CC)O[Si](C(C)C)(C(C)C)C(C)C)OCCO3)CC[C@@H]12`, the GI50 in assay [8] is 83.8 µM (inactive); in assay [9], > 100 µM (inactive); in assay [1] it was > 100 µM (inactive); in assay [2] it was > 100 µM (inactive); in assay [10] it was > 100 µM (inactive); in assay [11] it was > 100 µM (inactive). Moreover, the GI50 in assay [12] was > 100 µM (inactive); in assay [13], 31.9 µM (inactive); in assay [14] it was 63.5 µM (inactive); in assay [15] it was > 100 µM (inactive); in assay [16], > 100 µM (inactive); in assay [17], 49.3 µM (inactive). The GI50 in assay [18] is > 100 µM (inactive); in [19], > 100 µM (inactive); in assay [20], < 0.01 µM (active); in [21], > 100 µM (inactive); in [22], > 100 µM (inactive); in assay [23], > 100 µM (inactive).

On to `Cc1c(NC(=O)CCl)c(=O)oc2c(C)c3occc(=O)c3cc12`, for which the GI50 in assay [24] is 18.6 µM (inactive); in [25], 12.1 µM (inactive); in [26] it was 13.9 µM (inactive); in assay [27] it was 10.7 µM (inactive); in [28], 11.7 µM (inactive); in [29], 12.6 µM (inactive). For the same compound, the GI50 was 2.39 µM (inactive) in [8]; 16.6 µM (inactive) in assay [9]; 15.8 µM (inactive) in [1]; 13.1 µM (inactive) in assay [30]; 18.2 µM (inactive) in assay [2]; 6.95 µM (inactive) in assay [3]. Besides, the GI50 in [10] is 23.7 µM (inactive); in [31], 14.2 µM (inactive); in assay [32], 3.48 µM (inactive); in assay [33], 14.5 µM (inactive); in assay [34], 18.9 µM (inactive); in assay [13], 6.79 µM (inactive). Moreover, the GI50 in [35] is 13.9 µM (inactive); in assay [14], 10.5 µM (inactive); in assay [36], 7.87 µM (inactive); in [15] it was 16.9 µM (inactive); in assay [37], 14.9 µM (inactive); in assay [16] it was 11.5 µM (inactive). Moreover, the GI50 in assay [38] was 12.3 µM (inactive); in assay [39] it was 14.3 µM (inactive); in [4], 18.5 µM (inactive); in [40], 6.49 µM (inactive); in assay [17], 16.9 µM (inactive); in assay [41], 14.4 µM (inactive). Besides, the GI50 in [6] is 13.8 µM (inactive); in [42], 11.6 µM (inactive); in assay [43], 1.37 µM (inactive); in assay [18], 14.5 µM (inactive); in assay [7], 15.5 µM (inactive); in [44], 11.6 µM (inactive). For the same compound, the GI50 in assay [45] is 10.9 µM (inactive); in [19], 12.8 µM (inactive); in assay [20], 10.1 µM (inactive); in [46], greater than 10 µM; in assay [47] it was 5.28 µM (inactive); in assay [48] it was 11.5 µM (inactive). Besides, the GI50 in assay [23] was 14 µM (inactive); in assay [49], 16.1 µM (inactive); in [50], 21.1 µM (inactive).
